This test concerns primary cultures of rat hippocampal neurons. Put plainly: NMDA-induced neuronal death, trypan blue exclusion. It is filed as cell-based. The settings on record: DNQX; 100 μM SR-95531; not shown. The protocol: Principally neuronal cultures were prepared from hippocampal tissue of fetal Sprague-Dawley rats on day 18 of embryonic development, as previously described (Brewer et al., Brain Research 494: 65-74 (1989)). Briefly, hippocampal cells were dissociated by trituration in Ca^2+/Mg^2+-free Hank's basic salt solution (Gibco) supplemented with 4.2 mM bicarbonate, 1 mM sodium pyruvate, 20 mM HEPES, 3 mg/ml bovine serum albumin (BSA). Dissociated cells were then pelleted by centrifugation (500×g, 4 min). […] Cells were then plated onto poly-L-lysine-coated 24-well culture dishes (Nunclon) at a density of 15,000 cell/cm^2 and maintained in a humidified atmosphere containing 5% CO2/95% air at 37° C. After 48 h, nonneuronal cell division was inhibited by a 48 h exposure to 1 μM cytosine arabinoside. Cultures were subsequently maintained in serum-free DMEM plus defined components and were used for experiments 16 to 24 days after plating.
Steroids were dissolved in DMSO (0.5% final concentration), and all treatment media contained 0.5% DMSO. […] Following exposure, cultures were washed 3 times with medium from sister cultures (conditioned medium). After the final wash, steroid or vehicle was reintroduced. Drugs were added to cultures in 25 μl of conditioned medium to yield a final volume of 0.25 ml per well. Except where otherwise noted, final steroid concentration was 100 μM.
The ability of neurons to exclude trypan blue was used to quantitate cell viability (Dawson et al., Proc Natl Acad Sci USA 88: 6368-6371 (1991)). […] Cultures were then fixed with 4% paraformaldehyde in PBS for 30 min, at whichtime the fixative was replaced with PBS. The number of stained and unstained neurons were counted in 4 high-power fields per culture well, using an inverted phase contrast microscope under both bright field and phase contrast settings. Experiments were performed in triplicate, and all assessments were made with the experimenter blind to the treatment of each culture well. Percent cell death is expressed as follows: (number of trypan blue stained neurons)/(total number of neurons)×100%.
All data are expressed as mean±standard error of the mean. Statistical significance was evaluated using 95% confidence limits unless otherwise noted.

As for `Br.COc1ccc(-c2ccc(=N)n(CCCC(=O)O)n2)cc1` [SR-95531], the “effect on NMDA-induced neuronal death” value is “no effect”.
Then `O=C1N=c2cc([N+](=O)[O-])c([N+](=O)[O-])cc2=NC1=O` [DNQX, 6,7-dinitroquinoxaline-2,3-dione], with “no effect”.

(Values after patent US6623933B1 (priority 1999, dated 2003).)
